We go through twelve molecules from patent publication US11833229B2, “Labeling precursors with squaric acid coupling” (SCV—SpezialChemikalienVertrieb GmbH, priority 2019, dated 2023).

For one data set, the target named is T1, PREP (Homo sapiens, UniProt P48147).
T1 sequence (P48147 1-710): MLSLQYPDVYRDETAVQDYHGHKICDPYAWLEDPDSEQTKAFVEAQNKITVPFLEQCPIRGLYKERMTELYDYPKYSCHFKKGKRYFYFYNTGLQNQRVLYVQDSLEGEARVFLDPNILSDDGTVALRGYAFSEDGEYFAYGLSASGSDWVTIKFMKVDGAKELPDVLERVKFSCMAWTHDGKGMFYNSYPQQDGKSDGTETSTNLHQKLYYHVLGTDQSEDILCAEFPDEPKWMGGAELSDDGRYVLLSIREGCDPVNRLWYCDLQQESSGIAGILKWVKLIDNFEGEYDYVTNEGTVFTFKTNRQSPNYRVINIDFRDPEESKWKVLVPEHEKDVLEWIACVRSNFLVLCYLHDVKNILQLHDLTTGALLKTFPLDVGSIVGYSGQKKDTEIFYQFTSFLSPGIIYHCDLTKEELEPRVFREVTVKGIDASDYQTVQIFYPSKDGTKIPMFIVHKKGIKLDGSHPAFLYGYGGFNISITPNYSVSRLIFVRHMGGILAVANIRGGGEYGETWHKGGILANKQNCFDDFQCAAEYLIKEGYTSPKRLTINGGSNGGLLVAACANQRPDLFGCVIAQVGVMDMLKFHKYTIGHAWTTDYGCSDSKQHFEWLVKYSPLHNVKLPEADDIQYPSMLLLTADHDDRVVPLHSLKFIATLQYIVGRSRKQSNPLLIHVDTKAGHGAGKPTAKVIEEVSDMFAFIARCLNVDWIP
The experiment in a line: PREP IC50 using N-succinyl-Gly-Pro-AMC. The data set is classed as biochemical. The following applies: substrate N-succinyl-Gly-Pro-AMC. On the procedure:
(§1) The FAP IC50 values were measured using Z-Gly-Pro-7-amino-4-methylcoumarin (AMC). The PREP IC50 values were determined using N-succinyl-Gly-Pro-AMC.

The next data set concerns the target T2, FAP (Homo sapiens, UniProt Q12884).
T2 sequence (Q12884 1-760): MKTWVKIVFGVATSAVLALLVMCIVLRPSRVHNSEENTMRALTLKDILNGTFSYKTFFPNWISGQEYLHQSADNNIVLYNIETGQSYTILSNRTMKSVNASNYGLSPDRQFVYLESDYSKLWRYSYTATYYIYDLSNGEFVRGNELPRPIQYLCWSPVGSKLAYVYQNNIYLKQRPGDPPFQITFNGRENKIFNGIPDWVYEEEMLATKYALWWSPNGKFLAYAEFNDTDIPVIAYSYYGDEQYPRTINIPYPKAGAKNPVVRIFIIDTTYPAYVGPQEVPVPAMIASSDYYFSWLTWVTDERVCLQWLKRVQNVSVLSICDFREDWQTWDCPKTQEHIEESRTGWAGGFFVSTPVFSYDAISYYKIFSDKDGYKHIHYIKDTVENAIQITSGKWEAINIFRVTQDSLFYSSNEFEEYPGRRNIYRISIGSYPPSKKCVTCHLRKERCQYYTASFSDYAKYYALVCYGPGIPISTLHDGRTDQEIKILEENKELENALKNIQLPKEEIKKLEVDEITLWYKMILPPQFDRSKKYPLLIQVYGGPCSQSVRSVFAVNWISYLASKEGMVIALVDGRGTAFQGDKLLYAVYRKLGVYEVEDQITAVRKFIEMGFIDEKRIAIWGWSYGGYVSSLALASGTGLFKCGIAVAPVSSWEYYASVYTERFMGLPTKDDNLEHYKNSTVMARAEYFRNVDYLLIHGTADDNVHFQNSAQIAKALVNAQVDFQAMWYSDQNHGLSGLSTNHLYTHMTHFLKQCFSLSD
Put plainly: FAP IC50 using Z-Gly-Pro-7-amino-4-methylcoumarin (AMC). It counts as biochemical. The following applies: for Selectivity index (FAP/PREP): from IC50 FAP and IC50 PREP; for IC50: substrate Z-Gly-Pro-AMC. On the procedure: as §1

The test system of a further data set is LNCap cells. Put plainly: In vitro IC50 of unlabeled compounds with LNCap cells. It counts as cell-based. An excerpt:
Further compounds according to the invention are those of the DATA.QS.PSMA type, the structure of which corresponds to the other compounds listed, with the DATA chelator enabling simpler and milder labeling. In the synthesis shown in FIG. 37, a yield of about 70% is achieved. In the case of radioactive labeling with ^68Ga, a yield of more than 95% is achieved (FIG. 38).

For data set [1], the system named is LNCaP tumor. Put plainly: PET preclinical comparative tests of PSMA radiotracers (SUV). The following applies: 68Ga-labeled tracer; for SUV Nieren: kidneys (Nieren); for SUV Leber: liver (Leber).
The test system of data set [2] is LNCaP tumor. The following applies: NMRI nu/nu nude, mouse, in vivo.
A further data set relates to tumor tissue. Put plainly: In vivo and ex vivo investigation of TRAP.QS.PSMA radiotracer. The following applies: ex vivo, compared to [68Ga]Ga-PSMA-11. The protocol: FIG. 31a-b, 32-36 show the synthesis and measurement results for radiolabeling, stability and in vivo investigations of the radiotracer [^68Ga]Ga-TRAP.QS.PSMA. […] The in vivo studies were carried out with ^68Ga and ^64Cu. From the images it can be seen that, compared to Examples 8 and 10, the accumulation in the kidneys is […] for both radiotracers.

The subject of data set [3] is LNCaP tumor. The experiment in a line: Biological distribution by extraction of organs (ex vivo), PSMA tracers. It counts as in vivo, NMRInu/nu nude mice. The following applies: for tumor activity (biological distribution): compared with 68Ga-PSMA-11 and 68Ga-PSMA-617. An excerpt: In addition, PET was used to carry out preclinical ex vivo tests with the radiotracers of type [^68Ga]Ga-DOTA.QS.PSMA, [^68Ga]Ga-PSMA-11 and [^68Ga] Ga-PSMA-617 on NMRInu/nu nude mice with an LNCap tumor. […] The results obtained underline those obtained in the in vivo tests.

A short description of data set [4]: PET scans of bone tracers in young healthy rats. It counts as in vivo, Wistar rats. On the procedure:
The tracer NOTA.QS.PAM according to the invention and the clinically established reference tracer DOTA^Zol were labeled with ^68Ga, injected into young healthy Wistar rats, followed by recording of PET scans at intervals of 5 min, 60 min and 120 min after injection.
Both tracers are characterized by renal excretion and low retention in the remaining tissue.

The test system of another data set is tumor. The experiment in a line: Ex vivo activities of 68Ga-DATA.QS.PSMA and 68Ga-PSMA-11. It counts as in vivo. The following applies: ± SD. The source says: The results of ex vivo investigations (FIGS. 41-43) are in agreement with the in vivo observations.

“And” between values parts separate entries of the source, which are not always exact repeats. Identical values can stand only once. Like-named read-outs stand apart in the source and are kept apart here.

Turning to `CN(CC(=O)O)C1(CCCCC(=O)NCCNc2c(NCCCCOc3ccc4nccc(C(=O)NCC(=O)N5CC(F)(F)C[C@H]5C#N)c4c3)c(=O)c2=O)CN(CC(=O)O)CCN(CC(=O)O)C1.[Ga+3]` [DATA5m.QS.FAPi - natGa], the half-inhibitory concentration (IC50) on PREP came to 4.7 ± 0.3 µM; against FAP it was 0.0007 ± 0.0001 µM. In addition, the “Selectivity index (FAP/PREP)” value at FAP is reported as 6714.

Take `CN(CC(=O)O)C1(CCCCC(=O)NCCNc2c(NCCCCC(NC(=O)NC(CCC(=O)O)C(=O)O)C(=O)O)c(=O)c2=O)CN(CC(=O)O)CCN(CC(=O)O)C1` (stereo not drawn) [DATA.QS.PSMA]: the half-maximal inhibitory concentration (IC50) with LNCap cells was 0.0515 µM and 0.0511 µM.

For `CN(CC(=O)O)C1(CCCCC(=O)NCCNc2c(NCCCCOc3ccc4nccc(C(=O)NCC(=O)N5CC(F)(F)C[C@H]5C#N)c4c3)c(=O)c2=O)CN(CC(=O)O)CCN(CC(=O)O)C1` [DATA^5m.QS.FAPi - uncomplexed], the half-inhibitory concentration (IC50) was determined as 1.69 ± 0.09 µM at PREP and 0.0008 ± 0.0002 µM against FAP. The “Selectivity index (FAP/PREP)” value at FAP is on record as 2113.

`N#C[C@@H]1CC(F)(F)CN1C(=O)CNC(=O)c1ccnc2ccc(OCCCCNc3c(NCCNC(=O)CN4CCN(CC(=O)O)CCN(CC(=O)O)CCN(CC(=O)O)CC4)c(=O)c3=O)cc12` [DOTA.QS.FAPi - uncomplexed]: on PREP, the IC50 turned out to be 5.4 ± 0.3 µM. Moreover, on FAP, the “Selectivity index (FAP/PREP)” value came to 6000 and the IC50 worked out at 0.0009 ± 0.0001 µM.

On to `O=C(O)CCC(NC(=O)NC(CCCCNc1c(NCCNC(=O)CCC(C(=O)O)N2CCN(CC(=O)O)CCN(CC(=O)O)CCN(CC(=O)O)CC2)c(=O)c1=O)C(=O)O)C(=O)O` (stereo not drawn) [DOTA.QS.PSMA], for which, in the data set with LNCaP tumor [1], the “SUV Nieren” value was 0.43, the “SUV Leber” value came to 0.27 and the “SUV Tumor” value amounted to 0.73.

Take `O=C(O)CCc1ccc(O)c(CN(CCN(CC(=O)O)Cc2cc(CCC(=O)NCCCCCC(=O)NCCCC[C@H](NC(=O)N[C@@H](CCC(=O)O)C(=O)O)C(=O)O)ccc2O)CC(=O)O)c1` [PSMA-11, reference compound]: in the data set on LNCaP tumor [1], the “SUV Nieren” value is 4.71, the “SUV Leber” value is on record as 0.25 and the “SUV Tumor” value turned out to be 1.16.

Turning to `O=C(O)CC[C@H](NC(=O)N[C@@H](CCCCNC(=O)[C@H](Cc1ccc2ccccc2c1)NC(=O)[C@H]1CC[C@H](CNC(=O)CN2CCN(CC(=O)O)CCN(CC(=O)O)CCN(CC(=O)O)CC2)CC1)C(=O)O)C(=O)O` [PSMA-617], the IC50 with LNCap cells (Homo sapiens) amounted to 0.0151 µM. Also, in the data set on LNCaP tumor [2], the “SUV Leber” value came out at 0.29, the “SUV Nieren” value came to 0.27 and the “SUV Tumor” value was found to be 0.73.

Take `O=C(O)CCC(NC(=O)NC(CCCCNc1c(NCCCOCCOCCOCCCNC(=O)CCP(=O)(O)CN2CCN(CP(=O)(O)CCC(=O)NCCCOCCOCCOCCCNc3c(NCCCCC(NC(=O)NC(CCC(=O)O)C(=O)O)C(=O)O)c(=O)c3=O)CCN(CP(=O)(O)CCC(=O)NCCCOCCOCCOCCCNc3c(NCCCCC(NC(=O)NC(CCC(=O)O)C(=O)O)C(=O)O)c(=O)c3=O)CC2)c(=O)c1=O)C(=O)O)C(=O)O.[68Ga+3]` (stereo not drawn) [[^68Ga]Ga-TRAP.QS.PSMA]: in the data set on tumor tissue, the “accumulation in the kidneys” value is given as “noticeably decreased” and the “accumulation in tumor tissue” value is given as “elevated”.

Regarding `O=C(O)CCC(NC(=O)NC(CCCCNc1c(NCCNC(=O)CCC(C(=O)O)N2CCN(CC(=O)O)CCN(CC(=O)O)CCN(CC(=O)O)CC2)c(=O)c1=O)C(=O)O)C(=O)O.[68Ga+3]` (stereo not drawn) [^68Ga-DOTA.QS.PSMA], the “off-target activity in the kidneys” value in the data set with LNCaP tumor [3] (compared with 68Ga-PSMA-11) is on record as “significantly lower”. The “tumor activity (biological distribution)” value is “slightly lower or equal” in the data set with LNCaP tumor [3] and “slightly lower or the same” with LNCaP tumor [3] (listed as [^68Ga]Ga-DOTA.QS.PSMA). The “SUV Tumor” value with LNCaP tumor [1] came to 0.73.

Molecule `O=C(O)CN1CCN(CC(=O)O)CCN(CC(=O)NCCc2cncn2CC(O)(P(=O)(O)O)P(=O)(O)O)CCN(CC(=O)O)CC1.[68Ga+3]` [^68Ga-DOTA^Zol, reference compound] had an SUV femur in data set [4] (68Ga-labeled, organ distribution, femur) of 3.7±0.4.

As for `O=C(O)CN1CCN(CC(=O)O)CCN(C(CCC(=O)NCCNc2c(NCCC(O)(P(=O)(O)O)P(=O)(O)O)c(=O)c2=O)C(=O)O)CC1.[68Ga+3]` (stereo not drawn) [^68Ga-NOTA.QS.PAM], in data set [4] (rat, in vivo), the SUV femur was determined as 4.5±0.2 and the renal excretion result is recorded as “slightly reduced”.

With `O=C([O-])CN(CCN(CC(=O)[O-])Cc1cc(CCC(=O)NCCCCCC(=O)NCCCC[C@H](NC(=O)N[C@@H](CCC(=O)O)C(=O)O)C(=O)O)ccc1[O-])Cc1cc(CCC(=O)O)ccc1[O-].[68Ga+3].[OH3+]` [^68Ga.PSMA 11, reference compound], the “Ex vivo activity LN” value in the data set with tumor (LN) is listed as 0.66 ± 0.10 % ID/g. Further, in the data set on tumor (blood), the “Ex vivo activity blood” value is on record as 0.27 ± 0.03 % ID/g. The “Ex vivo activity bone” value with tumor (bone) stood at 0.15 ± 0.04 % ID/g. The “Ex vivo activity heart” value in the data set with tumor (heart) is recorded as 0.17 ± 0.03 % ID/g. Moreover, the “Ex vivo activity kidney left” value in the data set with tumor (kidney left) turned out to be 36.66 ± 5.05 % ID/g. In addition, the “Ex vivo activity kidney right” value with tumor (kidney right) is 36.72 ± 4.33 % ID/g. For the same molecule, in the data set with tumor (liver), the “Ex vivo activity liver” value amounted to 0.23 ± 0.04 % ID/g. In the data set on tumor (lung), the “Ex vivo activity lung” value was 0.74 ± 0.04 % ID/g. Besides, in the data set on tumor (muscle), the “Ex vivo activity muscle” value came out at 0.11 ± 0.03 % ID/g. Besides, the “Ex vivo activity salivary glands” value in the data set with tumor (salivary glands) was 0.54 ± 0.11 % ID/g. Further, the “Ex vivo activity small intestine” value in the data set with tumor (small intestine) turned out to be 0.50 ± 0.14 % ID/g. The “Ex vivo activity spleen” value with tumor (spleen) came to 3.12 ± 0.39 % ID/g. Also, the “Ex vivo activity tumor” value in the data set with tumor (tumor) turned out to be 5.51 ± 0.38 % ID/g.
